Common to all, as to assay: Glasshouse assay for herbicidal activity (pre- and post-emergence), percentage phytotoxicity
Type in all cases: in vivo

The subject of test [1] is Lolium perenne (LOLPE). The following applies: Lolium perenne. In a few lines: (§1)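 Pot-grown, standard soil. PRE: spray 1 d post-sowing; POST: ~12 d. Glasshouse 24/18 °C (warm spp.) / 20/16 °C (cool spp.), 16 h light, 65% RH, watered 2×/day. Visual % damage, 20 DAA PRE, 15 DAA POST.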
In test [2] the test system is Echinochloa crus-galli (ECHCG). The following applies: Echinochloa crus-galli. In a few lines: as §1
For test [3], the system named is Avena fatua (AVEFA). Conditions: Avena fatua. The gist of the method:
as §1

Test [4] relates to Alopecurus myosuroides (ALOMY). The following applies: Alopecurus myosuroides. In a few lines: as §1
Setting [5] is: post-emergence, 360 h, POST-emergence, rate 250 g/ha, visual score 15 DAA (100%=total damage, 0%=no damage), read-out: Post-emergence herbicidal activity (percentage phytotoxicity) LOLPE POST.
Where [6] appears, read: pre-emergence, 480 h, PRE-emergence, rate 250 g/ha, visual score 20 DAA (100%=total damage, 0%=no damage), read-out: Pre-emergence herbicidal activity (percentage phytotoxicity) LOLPE PRE.
[7] abbreviates: post-emergence, 360 h, POST-emergence, rate 250 g/ha, visual score 15 DAA (100%=total damage, 0%=no damage), read-out: Post-emergence herbicidal activity (percentage phytotoxicity) ECHCG POST.
Setting [8] is: pre-emergence, 480 h, PRE-emergence, rate 250 g/ha, visual score 20 DAA (100%=total damage, 0%=no damage), read-out: Pre-emergence herbicidal activity (percentage phytotoxicity) ECHCG PRE.
Setting [9] is: post-emergence, 360 h, POST-emergence, rate 250 g/ha, visual score 15 DAA (100%=total damage, 0%=no damage), read-out: Post-emergence herbicidal activity (percentage phytotoxicity) AVEFA POST.
Setting [10] is: pre-emergence, 480 h, PRE-emergence, rate 250 g/ha, visual score 20 DAA (100%=total damage, 0%=no damage), read-out: Pre-emergence herbicidal activity (percentage phytotoxicity) AVEFA PRE.
Setting [11] is: post-emergence, 360 h, POST-emergence, rate 250 g/ha, visual score 15 DAA (100%=total damage, 0%=no damage), read-out: Post-emergence herbicidal activity (percentage phytotoxicity) ALOMY POST.
Setting [12] is: pre-emergence, 480 h, PRE-emergence, rate 250 g/ha, visual score 20 DAA (100%=total damage, 0%=no damage), read-out: Pre-emergence herbicidal activity (percentage phytotoxicity) ALOMY PRE.

Here are results for nine compounds from patent publication US10206394B2, “Herbicidal compounds” (Syngenta Participations AG, priority 2014, dated 2019).

Each structure is given as a SMILES string. Read-outs that look alike come from different tables or passages of the source.

`Cc1cc(-c2ccc(F)cn2)cc(C)c1C1C(=O)CC(CC(=O)N(C)C(C)(C)C)C1=O` (stereo not drawn) [Compound B393]: the pest or weed control at 250 g/ha in test [1] (post-emergence, 360 h, Rate 250 g/ha, post-emergence, visual assessment 15 DAA, 100%=total damage, 0%=no damage, read-out: Post-emergence herbicidal activity (percentage phytotoxicity) LOLPE POST) came out at 90%; in test [1] (pre-emergence, 480 h, Rate 250 g/ha, pre-emergence, visual assessment 20 DAA, 100%=total damage, 0%=no damage, read-out: Pre-emergence herbicidal activity (percentage phytotoxicity) LOLPE PRE), 100%; in test [2] (post-emergence, 360 h, Rate 250 g/ha, post-emergence, visual assessment 15 DAA, 100%=total damage, 0%=no damage, read-out: Post-emergence herbicidal activity (percentage phytotoxicity) ECHCG POST) it was 100%; in test [2] (pre-emergence, 480 h, Rate 250 g/ha, pre-emergence, visual assessment 20 DAA, 100%=total damage, 0%=no damage, read-out: Pre-emergence herbicidal activity (percentage phytotoxicity) ECHCG PRE) it was 100%; in test [3] (post-emergence, 360 h, Rate 250 g/ha, post-emergence, visual assessment 15 DAA, 100%=total damage, 0%=no damage, read-out: Post-emergence herbicidal activity (percentage phytotoxicity) AVEFA POST), 100%; in test [3] (pre-emergence, 480 h, Rate 250 g/ha, pre-emergence, visual assessment 20 DAA, 100%=total damage, 0%=no damage, read-out: Pre-emergence herbicidal activity (percentage phytotoxicity) AVEFA PRE), 90%. In addition, the pest or weed control at 250 g/ha in test [4] (post-emergence, 360 h, Rate 250 g/ha, post-emergence, visual assessment 15 DAA, 100%=total damage, 0%=no damage, read-out: Post-emergence herbicidal activity (percentage phytotoxicity) ALOMY POST) came out at 90%; in test [4] (pre-emergence, 480 h, Rate 250 g/ha, pre-emergence, visual assessment 20 DAA, 100%=total damage, 0%=no damage, read-out: Pre-emergence herbicidal activity (percentage phytotoxicity) ALOMY PRE), 100%.

As to `Cc1cc(-c2ncc(F)cc2F)cc(C)c1C1C(=O)CC(CC(=O)NCc2cccc(C(F)(F)F)c2)C1=O` (stereo not drawn) [Compound B88], the pest or weed control at 250 g/ha in test [1] (post-emergence, 360 h, 250 g/ha, post-emergence, 15 DAA, visual assessment (100%=total damage, 0%=no damage), read-out: Post-emergence herbicidal activity (percentage phytotoxicity) LOLPE POST) came out at 100%; in test [1] (pre-emergence, 480 h, 250 g/ha, pre-emergence, 20 DAA, visual assessment (100%=total damage, 0%=no damage), read-out: Pre-emergence herbicidal activity (percentage phytotoxicity) LOLPE PRE) it was 90%; in test [2] (post-emergence, 360 h, 250 g/ha, post-emergence, 15 DAA, visual assessment (100%=total damage, 0%=no damage), read-out: Post-emergence herbicidal activity (percentage phytotoxicity) ECHCG POST) it was 100%; in test [2] (pre-emergence, 480 h, 250 g/ha, pre-emergence, 20 DAA, visual assessment (100%=total damage, 0%=no damage), read-out: Pre-emergence herbicidal activity (percentage phytotoxicity) ECHCG PRE), 90%; in test [3] (post-emergence, 360 h, 250 g/ha, post-emergence, 15 DAA, visual assessment (100%=total damage, 0%=no damage), read-out: Post-emergence herbicidal activity (percentage phytotoxicity) AVEFA POST), 100%; in test [3] (pre-emergence, 480 h, 250 g/ha, pre-emergence, 20 DAA, visual assessment (100%=total damage, 0%=no damage), read-out: Pre-emergence herbicidal activity (percentage phytotoxicity) AVEFA PRE) it was 70%. For the same compound, the pest or weed control at 250 g/ha came to 100% in test [4] (post-emergence, 360 h, 250 g/ha, post-emergence, 15 DAA, visual assessment (100%=total damage, 0%=no damage), read-out: Post-emergence herbicidal activity (percentage phytotoxicity) ALOMY POST) and 90% in test [4] (pre-emergence, 480 h, 250 g/ha, pre-emergence, 20 DAA, visual assessment (100%=total damage, 0%=no damage), read-out: Pre-emergence herbicidal activity (percentage phytotoxicity) ALOMY PRE).

As for `Cc1cc(-c2ncc(Cl)cc2F)cc(C)c1C1C(=O)CC(CC(=O)NCC(C)(C)C)C1=O` (stereo not drawn) [Compound B178], the pest or weed control at 250 g/ha turned out to be 100% in test [1] (setting [5]); 100% in test [1] (setting [6]); 100% in test [2] (setting [7]); 100% in test [2] (setting [8]); 90% in test [3] (setting [9]); 90% in test [3] (setting [10]). Besides, the pest or weed control at 250 g/ha in test [4] (setting [11]) and in test [4] (setting [12]) was 100% each time.

Consider `CCNC(=O)CC1CC(=O)C(c2c(C)cc(-n3cc(Cl)cn3)cc2C)C1=O` (stereo not drawn) [Compound B307], for which the pest or weed control at 250 g/ha turned out to be 90% in test [1] (setting [5]); 100% in test [1] (setting [6]); 100% in test [2] (setting [7]); 100% in test [2] (setting [8]); 100% in test [3] (setting [9]); 100% in test [3] (setting [10]). Also, the pest or weed control at 250 g/ha in test [4] (setting [11]) worked out at 90%; in test [4] (setting [12]) it was 100%.

For `CCc1cc(-n2cc(Cl)cn2)cc(C)c1C1C(=O)CC(CC(=O)NCc2ccc(OC)cc2)C1=O` (stereo not drawn) [Compound B233], the pest or weed control at 250 g/ha worked out at 70% in test [1] (setting [5]); 70% in test [1] (setting [6]); 100% in test [2] (setting [7]); 70% in test [2] (setting [8]); 70% in test [3] (setting [9]); 60% in test [3] (setting [10]). In addition, the pest or weed control at 250 g/ha in test [4] (setting [11]) came to 60%; in test [4] (setting [12]), 70%.

As for `Cc1cc(-c2ncc(F)cn2)cc(C)c1C1C(=O)CC(CC(=O)NCc2cccc(F)c2)C1=O` (stereo not drawn) [Compound B264], the pest or weed control at 250 g/ha in test [1] (setting [5]) is 100%; in test [1] (setting [6]), 90%; in test [2] (setting [7]), 100%; in test [2] (setting [8]) it was 100%; in test [3] (setting [9]) it was 100%; in test [3] (setting [10]), 80%. Besides, the pest or weed control at 250 g/ha in test [4] (setting [11]) and in test [4] (setting [12]) was 100% throughout.

`C=CCCNC(=O)CC1CC(=O)C(c2c(C)cc(-c3ncc(Cl)cc3F)cc2C)C1=O` (stereo not drawn) [Compound A111]: the pest or weed control at 250 g/ha in test [1] (post-emergence, 360 h, Rate 250 g/ha, post-emergence, assessed visually 15 DAA, 100%=total damage, 0%=no damage, read-out: Post-emergence herbicidal activity (percentage phytotoxicity) LOLPE POST) worked out at 100%; in test [1] (pre-emergence, 480 h, Rate 250 g/ha, pre-emergence, assessed visually 20 DAA, 100%=total damage, 0%=no damage, read-out: Pre-emergence herbicidal activity (percentage phytotoxicity) LOLPE PRE) it was 100%; in test [2] (post-emergence, 360 h, Rate 250 g/ha, post-emergence, assessed visually 15 DAA, 100%=total damage, 0%=no damage, read-out: Post-emergence herbicidal activity (percentage phytotoxicity) ECHCG POST) it was 100%; in test [2] (pre-emergence, 480 h, Rate 250 g/ha, pre-emergence, assessed visually 20 DAA, 100%=total damage, 0%=no damage, read-out: Pre-emergence herbicidal activity (percentage phytotoxicity) ECHCG PRE) it was 100%; in test [3] (post-emergence, 360 h, Rate 250 g/ha, post-emergence, assessed visually 15 DAA, 100%=total damage, 0%=no damage, read-out: Post-emergence herbicidal activity (percentage phytotoxicity) AVEFA POST) it was 100%; in test [3] (pre-emergence, 480 h, Rate 250 g/ha, pre-emergence, assessed visually 20 DAA, 100%=total damage, 0%=no damage, read-out: Pre-emergence herbicidal activity (percentage phytotoxicity) AVEFA PRE) it was 90%. Further, the pest or weed control at 250 g/ha in test [4] (post-emergence, 360 h, Rate 250 g/ha, post-emergence, assessed visually 15 DAA, 100%=total damage, 0%=no damage, read-out: Post-emergence herbicidal activity (percentage phytotoxicity) ALOMY POST) was 100%; in test [4] (pre-emergence, 480 h, Rate 250 g/ha, pre-emergence, assessed visually 20 DAA, 100%=total damage, 0%=no damage, read-out: Pre-emergence herbicidal activity (percentage phytotoxicity) ALOMY PRE), 90%.

Regarding `CCc1cc(-n2cc(Cl)cn2)cc(C)c1C1C(=O)CC(CC(=O)NC(C)C)C1=O` (stereo not drawn) [Compound B235], the pest or weed control at 250 g/ha in test [1] (setting [5]), in test [1] (setting [6]), in test [2] (setting [7]), in test [2] (setting [8]), in test [3] (setting [9]) and in test [3] (setting [10]) was 100% each time. Moreover, the pest or weed control at 250 g/ha in test [4] (setting [11]) and in test [4] (setting [12]) was 100% in each case.

`C/C=C/c1cc(C)c(C2C(=O)CC(CC(=O)NCc3cccc(F)c3)C2=O)c(CC)c1` (stereo not drawn) [Compound B188]: the pest or weed control at 250 g/ha in test [1] (setting [5]) is 90%; in test [1] (setting [6]), 80%; in test [2] (setting [7]) it was 100%; in test [2] (setting [8]), 80%; in test [3] (setting [9]), 100%; in test [3] (setting [10]) it was 40%. In addition, the pest or weed control at 250 g/ha came to 80% in test [4] (setting [11]) and 60% in test [4] (setting [12]).
